Legend:
[1] = tested on: pea seedlings; assay: Pea seedling growth (height) with leupeptin in watering; assay type: in vivo; conditions: 10 mg leupeptin in 5 ml water per plant per day to the soil
Procedure: 20 pea seedlings 4 days after planting of seed and each containing an average of 5 leaves were divided into two matched groups. 5 ml of water per plant per day was supplied to the soil in which the control group was growing. The test group received the same 5 ml of water but 10 mg of leupeptin was dissolved therein. The lighting and other growth conditions were the same and the plant heights were measured daily. The first measurement was made on the day that the leupeptin-treated plants reached a height of about 1 cm, a practical minimum measuring height.

[2] = tested on: Syrian hamsters; assay: Hamster growth (body weight) with daily leupeptin injection; assay type: in vivo; conditions: for Hamster Weight: daily injection 0.8 mg leupeptin in 1 ml saline (about 20 mg/Kg per day)
Procedure: 20 Syrian hamsters 3 weeks old and initially weighing an average of 40 grams each were subdivided into two groups. The groups were fed similarly. All animals received a daily injection of 1 ml of isotonic saline solution except that the saline solution administered to the test group had 0.8 mg of leupeptin dissolved therein, corresponding to about 20 mg/Kg per day based on the initial weight of the animals. The animals were weighed weekly and the results obtained were as follows: […]

**Q.** With `CC(=O)N[C@@H](CC(C)C)C(=O)N[C@@H](CC(C)C)C(=O)N[C@H](C=O)CCCNC(=N)N` [Leupeptin, leupeptin] as the molecule, how does the Pea seedling height ([1]; Day 0) read?
**A.** 1 ± 0.2 cm

**Q.** And the Pea seedling height ([1]; Day 1)?
**A.** 1.5 ± 0.1 cm

**Q.** What about the Pea seedling height ([1]; Day 4) of the same molecule?
**A.** 3.4 ± 0.2 cm

**Q.** And the Pea seedling height ([1]; Day 6)?
**A.** 5.2 ± 0.5 cm

**Q.** What about the Pea seedling height ([1]; Day 10) of the same molecule?
**A.** 7.9 ± 0.5 cm

**Q.** And the Pea seedling height ([1]; Day 12)?
**A.** 9.2 ± 0.6 cm

**Q.** And the Pea seedling height ([1]; Day 15)?
**A.** 12.1 ± 0.8 cm

**Q.** And the “Hamster Weight” value ([2]; Weeks 3)?
**A.** 47 ± 3 grams

**Q.** What about the “Hamster Weight” value ([2]; Weeks 6) of the same molecule?
**A.** 75 ± 5 grams

**Q.** And the “Hamster Weight” value ([2]; Weeks 9)?
**A.** 87 ± 6 grams

**Q.** And the “Hamster Weight” value ([2]; Weeks 12)?
**A.** 95 ± 9 grams

**Q.** What about the “Hamster Weight” value ([2]; Weeks 15) of the same molecule?
**A.** 105 ± 8 grams

**Q.** And the “Hamster Weight” value ([2]; Weeks 18)?
**A.** 110 ± 8 grams

**Q.** What about the “Hamster Weight” value ([2]; Weeks 21) of the same molecule?
**A.** 115 ± 7 grams

**Q.** And the “Hamster Weight” value ([2]; Weeks 27)?
**A.** 122 ± 10 grams

**Q.** And the “Hamster Weight” value ([2]; Weeks 32)?
**A.** 130 ± 9 grams

**Q.** What about the “Increase of hamster weight versus control” value ([2]; at all stages of development, about 20 mg/Kg per day by injection) of the same molecule?
**A.** 10-15%

**Q.** And the “Muscle mass of isolated muscles” value ([2]; muscles isolated from the treated hamsters)?
**A.** increased weight was attributable to a corresponding muscle mass increase
